Holding throughout (assay type): biochemical
The target in one experiment is human TK1 (Homo sapiens (Human), UniProt P06870). In words: Inhibition of TK1 (Ki). The following applies: substrate KM, enzyme TK1. The method, then: (§1) The ability of compounds of formula (I) to inhibit plasma kallikrein (PKK), Factor XIIa (FXIIa), Factor XIa (FXIa), Factor Xa (FXa), Factor IIa (alpha-thrombin; FIIa), plasmin, trypsin, tissue kallikrein 1 (TK1), Factor Vila (FVIIa), or FVIIa complexed with Tissue Factor, phospholipids and CaCl2) (FVIIa/TF/PL/CaCl2) was determined using the following biochemical assays in assay buffer (100 mM Tris, 150 mM NaCL, adjusted to a pH of 7.8 with HCl, and containing 0.1% (w/v) BSA and 0.05% (v/v) Tween20) in the presence of 1% (v/v) DMSO:
Prior to the assay, human TK1 (R&D Systems) was activated by incubation with human trypsin (Calbiochem) in a 1:10,000 ratio for 15 min at 37° C. For assaying TK1 inhibitory activity, activated TK1 (31.25 nM or 1 U/mL) was incubated at 24° C. with 0.1 mM fluorogenic substrate H-Pro-Phe-Arg-AMC (11295 from Bachem) and various concentrations of the test compound in assay buffer. Measurements were performed in a kinetic interval every 2nd minute for 16 min using a Spectramax M5 (Molecular Devices) with the following settings of the wavelength excitation of 350 nm and wavelength emission of 450 nm.
(§2) The pIC50 values were then fitted using a four-parametric fitting procedure using GraphPad Prism (version 6; GraphPad Software, Inc.). […]

A further experiment addresses Human FIIa (Homo sapiens (Human), UniProt P00734). The experiment in a line: Inhibition of FIIa (Ki). The following applies: substrate KM, enzyme FIIa. The method, then: as §1
Human FIIa (44.6 nM or 5 U/mL; Enzyme Research Laboratories) was incubated at 24° C. with 0.5 mM chromogenic Substrate S2238 (Chromogenix) and various concentrations of the test compound in assay buffer. Measurements were performed in a kinetic interval every 2nd minute for 16 min using a Spectramax M5 (Molecular Devices) measuring the optical absorbance at 405 nm.
(§3) The pIC50 values were then fitted using a four-parametric fitting procedure using GraphPad Prism (version 6; GraphPad Software, Inc.). Respective Ki values were obtained by correction of the IC50 values for the respective KM value of the used substrate (see Table A for the obtained KM values of the used substrates) using the following formula: […]

In a further experiment the target is Human FXIIa (Homo sapiens (Human), UniProt P00748). The experiment in a line: Inhibition of FXIIa (Ki). The settings on record: substrate KM, enzyme FXIIa. On the procedure:
as §1
Human FXIIa (47.5 nM or 1.1 U/mL; Enzyme Research Laboratories) was incubated at 24° C. with 0.5 mM chromogenic Substrate S2302 (Chromogenix) and various concentrations of the test compound in assay buffer. Measurements were performed in a kinetic interval every 2nd minute for 16 min using a Spectramax M5 (Molecular Devices) measuring the optical absorbance at 405 nm.
as §3

The target in another experiment is Human FXa (Homo sapiens (Human), UniProt P00742). The experiment in a line: Inhibition of FXa (Ki). The following applies: substrate KM, enzyme FXa. On the procedure:
as §1
Human FXa (0.86 nM or 0.01 U/mL; Enzyme Research Laboratories) was incubated at 24° C. with 0.5 mM chromogenic Substrate S2765 (Chromogenix) and various concentrations of the test compound in assay buffer. Measurements were performed in a kinetic interval every 2nd minute for 16 min using a Spectramax M5 (Molecular Devices) measuring the optical absorbance at 405 nm.
as §3

The target in the next experiment is Human FVIIa (Homo sapiens (Human), UniProt P08709). The experiment in a line: Inhibition of FVIIa (Ki). The settings on record: substrate KM, enzyme FVIIa. On the procedure: as §1
Human FVIIa (0.86 nM or 0.01 U/mL; Enzyme Research Laboratories) was incubated at 24° C. with 1.5 mM chromogenic Pefachrome® FVIIa (Loxo) and various concentrations of the test compound in assay buffer. Measurements were performed in a kinetic interval every 2nd minute for 16 min using a Spectramax M5 (Molecular Devices) measuring the optical absorbance at 405 nm.
as §3

The target of a further experiment is FVIIa/TF/PL/CaCl2 (Homo sapiens (Human), UniProt P08709). In words: Inhibition of FVIIa/TF/PL/CaCl2 (Ki). The following applies: substrate KM, enzyme FVIIa/TF/PL/CaCl2. On the procedure: as §1
Human FVIIa (300 nM or 585 U/mL; Enzyme Research Laboratories) together with 10 mM CaCl2)*2H2O and 13.3% (v/v) Dade®Innovin® (Siemens; OQUMI94E0002(5534), which contains recombinant human tissue factor synthetic phospholipids (thromboplastin), was incubated at 24° C. with 1.5 mM chromogenic Pefachrome® FVIIa (Loxo) and various concentrations of the test compound in assay buffer. Measurements were performed in a kinetic interval every 2nd minute for 16 min using a Spectramax M5 (Molecular Devices) measuring the optical absorbance at 405 nm.
as §2

Square brackets hold non-standard residues; d marks the D form. Peptide text beside a SMILES is read from it. * marks the point of attachment. pNA = O=[N+]([O-])c1ccc(N*)cc1; AMC = Cc1cc(=O)oc2cc(N*)ccc12; Cha = N[CH](CC1CCCCC1)C(=O)O; Cbz = O=C(OCc1ccccc1)*; Abu = CC[CH](N)C(=O)O; Ms = CS(=O)(=O)*

Sequence of Human FXIIa (P00748 373-615): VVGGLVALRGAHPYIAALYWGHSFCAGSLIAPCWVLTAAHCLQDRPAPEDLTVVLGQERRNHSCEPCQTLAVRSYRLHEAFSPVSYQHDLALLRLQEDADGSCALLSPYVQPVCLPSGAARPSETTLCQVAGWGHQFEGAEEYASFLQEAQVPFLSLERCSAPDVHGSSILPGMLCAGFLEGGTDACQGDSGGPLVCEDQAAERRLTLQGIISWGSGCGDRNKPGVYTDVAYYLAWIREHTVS
Sequence of Human FXIIa (P00748 20-372 partner): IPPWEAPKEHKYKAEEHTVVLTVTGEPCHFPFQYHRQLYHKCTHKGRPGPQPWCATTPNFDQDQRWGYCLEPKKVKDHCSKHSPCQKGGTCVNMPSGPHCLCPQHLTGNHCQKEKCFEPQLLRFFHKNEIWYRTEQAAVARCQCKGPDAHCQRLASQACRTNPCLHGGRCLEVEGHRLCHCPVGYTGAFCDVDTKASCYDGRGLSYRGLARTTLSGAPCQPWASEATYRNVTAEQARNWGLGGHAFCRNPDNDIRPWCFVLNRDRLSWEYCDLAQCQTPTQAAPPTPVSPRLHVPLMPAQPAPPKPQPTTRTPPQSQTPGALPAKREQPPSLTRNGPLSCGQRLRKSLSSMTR
Sequence of Human FVIIa (P08709 213-466): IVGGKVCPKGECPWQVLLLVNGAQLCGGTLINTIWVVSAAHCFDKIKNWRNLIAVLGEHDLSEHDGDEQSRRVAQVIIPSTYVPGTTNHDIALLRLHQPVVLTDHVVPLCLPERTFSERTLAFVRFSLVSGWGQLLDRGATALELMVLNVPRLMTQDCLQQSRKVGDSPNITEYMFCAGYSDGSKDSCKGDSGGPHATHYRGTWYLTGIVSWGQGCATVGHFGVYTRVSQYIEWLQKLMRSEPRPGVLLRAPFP
Sequence of Human FVIIa (P08709 61-212 partner): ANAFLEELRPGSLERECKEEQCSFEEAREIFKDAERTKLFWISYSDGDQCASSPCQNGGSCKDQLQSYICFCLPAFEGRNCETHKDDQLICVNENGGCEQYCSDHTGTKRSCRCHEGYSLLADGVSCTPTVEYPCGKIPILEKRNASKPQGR
Sequence of FVIIa/TF/PL/CaCl2 (P08709 213-466): as the sequence (P08709 213-466) above
Sequence of FVIIa/TF/PL/CaCl2 (P08709 61-212 partner): as the sequence (P08709 61-212 partner) above
Sequence of FVIIa/TF/PL/CaCl2 (P13726 33-295 partner): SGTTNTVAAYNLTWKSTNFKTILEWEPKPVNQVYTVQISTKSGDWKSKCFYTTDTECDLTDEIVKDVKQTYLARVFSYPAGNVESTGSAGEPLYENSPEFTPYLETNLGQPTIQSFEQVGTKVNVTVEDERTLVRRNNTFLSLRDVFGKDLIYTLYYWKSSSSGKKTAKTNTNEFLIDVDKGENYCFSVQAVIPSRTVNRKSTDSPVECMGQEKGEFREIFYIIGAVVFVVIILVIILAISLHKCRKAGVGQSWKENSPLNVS
Sequence of human TK1 (P06870 25-262): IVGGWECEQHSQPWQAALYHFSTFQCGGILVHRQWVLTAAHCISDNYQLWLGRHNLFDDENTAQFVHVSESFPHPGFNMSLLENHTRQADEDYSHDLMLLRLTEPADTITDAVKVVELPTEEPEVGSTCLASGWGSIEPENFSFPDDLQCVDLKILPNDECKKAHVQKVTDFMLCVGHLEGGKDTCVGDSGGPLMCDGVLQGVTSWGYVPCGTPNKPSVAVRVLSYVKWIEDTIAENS
Sequence of Human FXa (P00742 235-488): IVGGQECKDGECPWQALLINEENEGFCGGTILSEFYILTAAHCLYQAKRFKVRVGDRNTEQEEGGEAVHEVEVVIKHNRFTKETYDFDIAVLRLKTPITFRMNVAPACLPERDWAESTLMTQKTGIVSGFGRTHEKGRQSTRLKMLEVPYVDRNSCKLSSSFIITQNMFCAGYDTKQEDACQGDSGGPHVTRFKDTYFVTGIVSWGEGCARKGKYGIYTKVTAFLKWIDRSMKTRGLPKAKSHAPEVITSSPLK
Sequence of Human FXa (P00742 41-179 partner): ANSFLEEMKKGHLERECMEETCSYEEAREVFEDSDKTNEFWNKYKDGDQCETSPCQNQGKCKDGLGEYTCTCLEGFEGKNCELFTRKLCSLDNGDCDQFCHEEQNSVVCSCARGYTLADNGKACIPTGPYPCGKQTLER

With `Cc1cc(=O)oc2cc(NC(=O)[C@H](CCCNC(=N)N)NC(=O)[C@H](Cc3ccccc3)NC(=O)[C@@H]3CCCN3)ccc12` [Example I1295, H-Pro-Phe-Arg-AMC] (H-Pro-Phe-Arg-{AMC}), the Km at human TK1 stood at 70 µM.
`NC(N)=NCCC[C@H](NC(=O)[C@@H]1CCCCN1C(=O)[C@H](N)Cc1ccccc1)C(=O)Nc1ccc([N+](=O)[O-])cc1` [Example S2238]: the Km on Human FIIa was 1250 µM.
Regarding `N=C(N)NCCC[C@H](NC(=O)[C@H](Cc1ccccc1)NC(=O)[C@H]1CCCN1)C(=O)Nc1ccc([N+](=O)[O-])cc1` [Example S2302] (H-[dP]-Phe-Arg-pNA), the Km at Human FXIIa stood at 200 µM.
As for `NC(N)=NCCC[C@H](NC(=O)CNC(=O)[C@@H](CCCN=C(N)N)NC(=O)OCc1ccccc1)C(=O)Nc1ccc([N+](=O)[O-])cc1` [Example S2765] (Cbz-[dR]-Gly-Arg-pNA), on Human FXa, the Km came out at 1310 µM.
Regarding `CCC(NC(=O)C(CC1CCCCC1)NS(C)(=O)=O)C(=O)NC(CCCN=C(N)N)C(=O)Nc1ccc([N+](=O)[O-])cc1` (stereo not drawn) [Pefachrome ® FVIIa] (Ms-[Cha]-[Abu]-Arg-pNA; configuration not given here), the Km amounted to 420 µM at Human FVIIa and 3920 µM on FVIIa/TF/PL/CaCl2.

By Km is commonly meant the concentration of substrate that gives half-maximal velocity.

The values are drawn from patent US12091399B2, “Phenyltetrazole derivatives as plasma kallikrein inhibitors” (Boehringer Ingelheim International GmbH, priority 2018, dated 2024).
